The IC50 is the midpoint of a concentration-inhibition curve.

Test [1] deals with T1, Aurora B (Homo sapiens, UniProt Q96GD4).
T1 construct: HT-29 cells grown in complete growth media
The test can be described thus: Aurora B cell mechanistic assay (HT-29), phospho-Histone H3 (Ser10) ELISA. The test is classed as cell-based. The conditions noted are these: HT-29 cell line; inhibition of phospho-Histone H3 (Ser10); at least duplicate experiments (italicized if single experiment); read-out: Aurora B mech IC50. Summed up: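 HT-29 cells treated 1 h at 37 °C with serially diluted compound, then 100 nM Calyculin A added for 30 min. Lysates assayed by phospho-Histone H3 (Ser10) ELISA at 450 nm; normalized to DMSO (100%) and a reference Aurora B inhibitor (full inhibition); IC50 by four-parameter fit.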

For test [2], the system named is Karpas-299 cells. As to the kind of experiment: Karpas-299 cell proliferation assay (CellTiter-Glo). The test is classed as cell-based. The conditions noted are these: Homo sapiens, 72 h; Karpas-299 cell line (NPM-ALK); 3 days incubation; at least duplicate experiments; read-out: Prolif. IC50. (In ATP-based viability assays light output follows the ATP content of the culture.)

T1 sequence (Q96GD4 whole entry): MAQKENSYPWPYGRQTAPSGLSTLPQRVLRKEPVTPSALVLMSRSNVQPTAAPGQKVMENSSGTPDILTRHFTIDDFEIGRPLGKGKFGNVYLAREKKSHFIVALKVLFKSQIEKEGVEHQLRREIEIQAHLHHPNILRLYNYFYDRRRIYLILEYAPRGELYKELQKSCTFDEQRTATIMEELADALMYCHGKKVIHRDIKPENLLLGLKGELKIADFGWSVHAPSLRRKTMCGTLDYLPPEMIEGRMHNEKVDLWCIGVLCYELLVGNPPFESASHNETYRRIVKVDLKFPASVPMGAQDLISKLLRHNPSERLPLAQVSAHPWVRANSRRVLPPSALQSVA

Take `Cc1c(-c2cnc3[nH]cc([C@H](C)c4c(OC(F)F)ccc(F)c4Cl)c3c2)cnn1C[C@H](O)CO` [Example 70, (2S)-3-[4-(3-{(1S)-1-[2-Chloro-6-(difluoromethoxy)-3-fluorophenyl]ethyl}-1H-pyrrolo[2,3-b]pyridin-5-yl)-5-methyl-1H-pyrazol-1-yl]propane-1,2-diol]: the IC50 is 200 to 1000 nM in test [1] and at most 50 nM in test [2].

`Cc1nn(C[C@H](O)CO)cc1-c1cnc2[nH]cc([C@H](C)c3c(OC(F)F)ccc(F)c3Cl)c2c1` [Example 71, (2S)-3-[4-(3-{(1S)-1-[2-Chloro-6-(difluoromethoxy)-3-fluorophenyl]ethyl}-1H-pyrrolo[2,3-b]pyridin-5-yl)-3-methyl-1H-pyrazol-1-yl]propane-1,2-diol]: the IC50 in test [1] was 50 to 200 nM; in test [2] it was at most 50 nM.

As for `CCc1c(-c2cnc3[nH]cc([C@H](C)c4c(OC(F)F)ccc(F)c4Cl)c3c2)cnn1CC(C)(C)O` [Example 72, 1-[4-(3-{(1S)-1-[2-Chloro-6-(difluoromethoxy)-3-fluorophenyl]ethyl}-1H-pyrrolo[2,3-b]pyridin-5-yl)-5-ethyl-1H-pyrazol-1-yl]-2-methylpropan-2-ol], the IC50 was 200 to 1000 nM in test [1] and 50 to 200 nM in test [2].

As to `CCc1nn(CC(C)(C)O)cc1-c1cnc2[nH]cc([C@H](C)c3c(OC(F)F)ccc(F)c3Cl)c2c1` [Example 73, 1-[4-(3-{(1S)-1-[2-Chloro-6-(difluoromethoxy)-3-fluorophenyl]ethyl}-1H-pyrrolo[2,3-b]pyridin-5-yl)-3-ethyl-1H-pyrazol-1-yl]-2-methylpropan-2-ol], the IC50 is over 1000 nM in test [1] and 50 to 200 nM in test [2].

As for `Cc1c(-c2cnc3[nH]cc([C@H](C)c4c(OC(F)F)ccc(F)c4Cl)c3c2)cnn1[C@H]1CC[C@H](O)CC1` [Example 74, trans-4-[4-(3-{(1S)-1-[2-Chloro-6-(difluoromethoxy)-3-fluorophenyl]ethyl}-1H-pyrrolo[2,3-b]pyridin-5-yl)-5-methyl-1H-pyrazol-1-yl]cyclohexanol], the IC50 in test [1] was 200 to 1000 nM; in test [2], at most 50 nM.

Regarding `Cc1c(-c2cnc3[nH]cc([C@H](C)c4c(OC(F)F)ccc(F)c4Cl)c3c2)cnn1[C@@H]1C[C@@H](O)[C@@H](O)C1` [Example 75, (1R,2S,4S)-4-[4-(3-{(1S)-1-[2-Chloro-6-(difluoromethoxy)-3-fluoro-phenyl]ethyl}-1H-pyrrolo[2,3-b]pyridin-5-yl)-5-methyl-1H-pyrazol-1-yl]cyclopentane-1,2-diol], the IC50 in test [1] was 200 to 1000 nM; in test [2], at most 50 nM.

For the compound `Cc1c(-c2cnc3[nH]cc([C@H](C)c4c(OC(F)F)ccc(F)c4Cl)c3c2)cnn1[C@H]1CC[C@H](C(N)=O)CC1` [Example 76, trans-4-[4-(3-{(1S)-1-[2-Chloro-6-(difluoromethoxy)-3-fluorophenyl]ethyl}-1H-pyrrolo[2,3-b]pyridin-5-yl)-5-methyl-1H-pyrazol-1-yl]cyclohexanecarboxamide], the IC50 in test [1] was 200 to 1000 nM; in test [2] it was at most 50 nM.

As for `CCc1nn([C@H]2CC[C@H](O)CC2)cc1-c1cnc2[nH]cc([C@H](C)c3c(OC(F)F)ccc(F)c3Cl)c2c1` [Example 77, trans-4-[4-(3-{(1S)-1-[2-Chloro-6-(difluoromethoxy)-3-fluorophenyl]ethyl}-1H-pyrrolo[2,3-b]pyridin-5-yl)-3-ethyl-1H-pyrazol-1-yl]cyclohexanol], the concentration for half-maximal inhibition (IC50) in test [1] lay in the range of 200 to 1000 nM; in test [2], 50 to 200 nM.

Take `CCc1c(-c2cnc3[nH]cc([C@H](C)c4c(OC(F)F)ccc(F)c4Cl)c3c2)cnn1[C@H]1CC[C@H](O)CC1` [Example 78, trans-4-[4-(3-{(1S)-1-[2-Chloro-6-(difluoromethoxy)-3-fluorophenyl]ethyl}-1H-pyrrolo[2,3-b]pyridin-5-yl)-5-ethyl-1H-pyrazol-1-yl]cyclohexanol]: the IC50 in test [1] is over 1000 nM; in test [2] it was at most 50 nM.

For `Cc1c(-c2cnc3[nH]cc([C@H](C)c4c(OC(F)F)ccc(F)c4Cl)c3c2)cnn1[C@H]1C[C@@](C)(O)C1` [Example 79, cis-3-[4-(3-{(1S)-1-[2-Chloro-6-(difluoromethoxy)-3-fluorophenyl]ethyl}-1H-pyrrolo[2,3-b]pyridin-5-yl)-5-methyl-1H-pyrazol-1-yl]-1-methylcyclobutanol], the results for the IC50 in test [1] and in test [2] were over 1000 nM and 50 to 200 nM, respectively.

With `Cc1c(-c2cnc3[nH]cc([C@H](C)c4c(OC(F)F)ccc(F)c4Cl)c3c2)cnn1[C@H]1C[C@@H](O)C1` [Example 81, cis-3-[4-(3-{(1S)-1-[2-Chloro-6-(difluoromethoxy)-3-fluorophenyl]ethyl}-1H-pyrrolo[2,3-b]pyridin-5-yl)-5-methyl-1H-pyrazol-1-yl]cyclobutanol], the IC50 in test [1] is over 1000 nM; in test [2], at most 50 nM.

`C[C@H](c1c(OC(F)F)ccc(F)c1Cl)c1c[nH]c2ncc(-c3cnn([C@H]4CC[C@H](O)CC4)c3Cl)cc12` [Example 82, trans-4-[5-Chloro-4-(3-{(1S)-1-[2-chloro-6-(difluoromethoxy)-3-fluorophenyl]ethyl}-1H-pyrrolo[2,3-b]pyridin-5-yl)-1H-pyrazol-1-yl]cyclohexanol]: the half-maximal inhibitory concentration (IC50) in test [1] was over 1000 nM; in test [2], 50 to 200 nM.

Turning to `C[C@H](c1c(OC(F)F)ccc(F)c1Cl)c1c[nH]c2ncc(-c3cnn([C@H]4CC[C@H](O)CC4)c3CO)cc12` [Example 83, trans-4-[4-(3-{(1S)-1-[2-Chloro-6-(difluoromethoxy)-3-fluorophenyl]ethyl}-1H-pyrrolo[2,3-b]pyridin-5-yl)-5-(hydroxymethyl)-1H-pyrazol-1-yl]cyclohexanol], the IC50 in test [1] was over 1000 nM; in test [2], 50 to 200 nM.

Regarding `C[C@H](c1c(OC(F)F)ccc(F)c1Cl)c1c[nH]c2ncc(-c3cnn([C@H]4CC[C@H](O)CC4)c3F)cc12` [Example 84, trans-4-[4-(3-{(1S)-1-[2-Chloro-6-(difluoromethoxy)-3-fluorophenyl]ethyl}-1H-pyrrolo[2,3-b]pyridin-5-yl)-5-fluoro-1H-pyrazol-1-yl]cyclohexanol], the IC50 in test [1] fell in the range of 200 to 1000 nM; in test [2] it was 50 to 200 nM.

On to `[2H]C([2H])([2H])c1c(-c2cnc3[nH]cc([C@H](C)c4c(OC(F)F)ccc(F)c4Cl)c3c2)cnn1[C@H]1CC[C@H](O)CC1` [Example 85, trans-4-[4-(3-{(1S)-1-[2-Chloro-6-(difluoromethoxy)-3-fluorophenyl]ethyl}-1H-pyrrolo[2,3-b]pyridin-5-yl)-5-(^2H3)methyl-1H-pyrazol-1-yl]cyclohexanol], for which the IC50 in test [1] is 200 to 1000 nM; in test [2], at most 50 nM.

In the case of `Cc1c(-c2cnc3[nH]cc([C@H](C)c4c(O)ccc(F)c4Cl)c3c2)cnn1[C@H]1CC[C@H](O)CC1` [Example 102, 3-Chloro-4-fluoro-2-[(1S)-1-{5-[1-(trans-4-hydroxycyclohexyl)-5-methyl-1H-pyrazol-4-yl]-1H-pyrrolo[2,3-b]pyridin-3-yl}ethyl]phenol], the values for the IC50 in test [1] and in test [2] were over 1000 nM and 50 to 200 nM, respectively.

As for `CCOc1ccc(F)c(Cl)c1[C@@H](C)c1c[nH]c2ncc(-c3cnn([C@H]4CC[C@H](O)CC4)c3C)cc12` [Example 103, trans-4-(4-{3-[(1S)-1-(2-Chloro-6-ethoxy-3-fluorophenyl)ethyl]-1H-pyrrolo[2,3-b]pyridin-5-yl}-5-methyl-1H-pyrazol-1-yl)cyclohexanol], the IC50 is over 1000 nM in test [1] and at most 50 nM in test [2].

For the compound `Cc1c(-c2cnc3[nH]cc([C@H](C)c4c(OC(C)C)ccc(F)c4Cl)c3c2)cnn1[C@H]1CC[C@H](O)CC1` [Example 104, trans-4-[4-(3-{(1S)-1-[2-Chloro-3-fluoro-6-(propan-2-yloxy)phenyl]ethyl}-1H-pyrrolo[2,3-b]pyridin-5-yl)-5-methyl-1H-pyrazol-1-yl]cyclohexanol], the IC50 in test [1] is 200 to 1000 nM; in test [2] it was at most 50 nM.

`Cc1c(-c2cnc3[nH]cc([C@H](C)c4c(OCC(F)(F)F)ccc(F)c4Cl)c3c2)cnn1[C@H]1CC[C@H](O)CC1` [Example 105, trans-4-[4-(3-{(1S)-1-[2-Chloro-3-fluoro-6-(2,2,2-trifluoroethoxy)-phenyl]ethyl}-1H-pyrrolo[2,3-b]pyridin-5-yl)-5-methyl-1H-pyrazol-1-yl]cyclohexanol]: the IC50 in test [1] is 50 to 200 nM; in test [2], at most 50 nM.

In the case of `COc1cc(OC)c(Cl)c([C@@H](C)c2c[nH]c3ncc(-c4cnn([C@H]5CC[C@H](O)CC5)c4C)cc23)c1Cl` [Example 106, trans-4-(4-{3-[(1S)-1-(2,6-Dichloro-3,5-dimethoxyphenyl)ethyl]-1H-pyrrolo[2,3-b]pyridin-5-yl}-5-methyl-1H-pyrazol-1-yl)cyclohexanol], the IC50 in test [1] is over 1000 nM; in test [2] it was 200 to 1000 nM.

On to `[2H]C([2H])([2H])Oc1ccc(F)c(Cl)c1[C@@H](C)c1c[nH]c2ncc(-c3cnn([C@H]4CC[C@H](O)CC4)c3C)cc12` [Example 107, trans-4-(4-{3-[(1S)-1-{2-Chloro-3-fluoro-6-[(^2H3)methyloxy]phenyl}ethyl]-1H-pyrrolo[2,3-b]pyridin-5-yl}-5-methyl-1H-pyrazol-1-yl)cyclohexanol], for which the values for the concentration for half-maximal inhibition (IC50) in test [1] and in test [2] were over 1000 nM and 50 to 200 nM, respectively.

As to `Cc1c(-c2cnc3[nH]cc(C(C#N)c4c(Cl)ccc(F)c4Cl)c3c2)cnn1[C@H]1CC[C@H](O)CC1` (stereo partly drawn) [Example 108, (2,6-Dichloro-3-fluorophenyl){5-[1-(trans-4-hydroxycyclohexyl)-5-methyl-1H-pyrazol-4-yl]-1H-pyrrolo[2,3-b]pyridin-3-yl}acetonitrile], the IC50 was over 1000 nM in test [1] and 200 to 1000 nM in test [2].

For the origin of these results see patent US8445510B2, “Fused bicyclic kinase inhibitors” (OSI Pharmaceuticals, LLC, priority 2011, dated 2013).
